Columns and labels:
[1] = molecular target: T1, Dual serine/threonine and tyrosine protein kinase (Homo sapiens) (UniProt Q6XUX3); assay: Inhibition of human RIPK5 at 500 nM by HotSpot assay relative to control
T1 sequence (whole entry): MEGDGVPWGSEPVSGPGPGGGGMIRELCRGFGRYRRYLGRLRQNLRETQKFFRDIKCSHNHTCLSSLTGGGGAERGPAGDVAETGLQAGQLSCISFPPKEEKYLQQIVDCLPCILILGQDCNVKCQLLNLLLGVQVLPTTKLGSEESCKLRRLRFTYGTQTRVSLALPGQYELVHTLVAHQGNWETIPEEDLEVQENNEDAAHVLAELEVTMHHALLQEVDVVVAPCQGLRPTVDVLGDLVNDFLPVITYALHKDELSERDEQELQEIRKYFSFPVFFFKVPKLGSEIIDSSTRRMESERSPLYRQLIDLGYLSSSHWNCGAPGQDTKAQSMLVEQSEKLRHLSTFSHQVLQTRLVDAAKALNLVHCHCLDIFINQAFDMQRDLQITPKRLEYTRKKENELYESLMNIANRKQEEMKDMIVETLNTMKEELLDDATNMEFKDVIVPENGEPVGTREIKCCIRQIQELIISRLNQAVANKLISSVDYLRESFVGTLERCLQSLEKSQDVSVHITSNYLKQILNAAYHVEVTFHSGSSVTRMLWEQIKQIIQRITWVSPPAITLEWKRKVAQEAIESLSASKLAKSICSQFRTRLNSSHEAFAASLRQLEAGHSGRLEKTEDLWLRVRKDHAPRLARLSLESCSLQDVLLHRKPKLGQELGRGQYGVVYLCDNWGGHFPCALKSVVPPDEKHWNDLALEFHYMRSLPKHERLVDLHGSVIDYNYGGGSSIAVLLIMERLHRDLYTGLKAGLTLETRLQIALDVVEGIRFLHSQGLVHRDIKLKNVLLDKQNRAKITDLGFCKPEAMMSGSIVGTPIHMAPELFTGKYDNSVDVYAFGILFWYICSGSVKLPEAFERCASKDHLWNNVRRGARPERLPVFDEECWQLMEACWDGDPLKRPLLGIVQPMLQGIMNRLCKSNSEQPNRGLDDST

[2] = molecular target: Mitogen-activated protein kinase kinase kinase kinase 4 (Homo sapiens) (UniProt O95819); assay: Inhibition of human HGK at 1.82 nM by HotSpot assay relative to control
Sequence of Mitogen-activated protein kinase kinase kinase kinase 4 (Homo sapiens) (O95819 2-1239 limits assumed): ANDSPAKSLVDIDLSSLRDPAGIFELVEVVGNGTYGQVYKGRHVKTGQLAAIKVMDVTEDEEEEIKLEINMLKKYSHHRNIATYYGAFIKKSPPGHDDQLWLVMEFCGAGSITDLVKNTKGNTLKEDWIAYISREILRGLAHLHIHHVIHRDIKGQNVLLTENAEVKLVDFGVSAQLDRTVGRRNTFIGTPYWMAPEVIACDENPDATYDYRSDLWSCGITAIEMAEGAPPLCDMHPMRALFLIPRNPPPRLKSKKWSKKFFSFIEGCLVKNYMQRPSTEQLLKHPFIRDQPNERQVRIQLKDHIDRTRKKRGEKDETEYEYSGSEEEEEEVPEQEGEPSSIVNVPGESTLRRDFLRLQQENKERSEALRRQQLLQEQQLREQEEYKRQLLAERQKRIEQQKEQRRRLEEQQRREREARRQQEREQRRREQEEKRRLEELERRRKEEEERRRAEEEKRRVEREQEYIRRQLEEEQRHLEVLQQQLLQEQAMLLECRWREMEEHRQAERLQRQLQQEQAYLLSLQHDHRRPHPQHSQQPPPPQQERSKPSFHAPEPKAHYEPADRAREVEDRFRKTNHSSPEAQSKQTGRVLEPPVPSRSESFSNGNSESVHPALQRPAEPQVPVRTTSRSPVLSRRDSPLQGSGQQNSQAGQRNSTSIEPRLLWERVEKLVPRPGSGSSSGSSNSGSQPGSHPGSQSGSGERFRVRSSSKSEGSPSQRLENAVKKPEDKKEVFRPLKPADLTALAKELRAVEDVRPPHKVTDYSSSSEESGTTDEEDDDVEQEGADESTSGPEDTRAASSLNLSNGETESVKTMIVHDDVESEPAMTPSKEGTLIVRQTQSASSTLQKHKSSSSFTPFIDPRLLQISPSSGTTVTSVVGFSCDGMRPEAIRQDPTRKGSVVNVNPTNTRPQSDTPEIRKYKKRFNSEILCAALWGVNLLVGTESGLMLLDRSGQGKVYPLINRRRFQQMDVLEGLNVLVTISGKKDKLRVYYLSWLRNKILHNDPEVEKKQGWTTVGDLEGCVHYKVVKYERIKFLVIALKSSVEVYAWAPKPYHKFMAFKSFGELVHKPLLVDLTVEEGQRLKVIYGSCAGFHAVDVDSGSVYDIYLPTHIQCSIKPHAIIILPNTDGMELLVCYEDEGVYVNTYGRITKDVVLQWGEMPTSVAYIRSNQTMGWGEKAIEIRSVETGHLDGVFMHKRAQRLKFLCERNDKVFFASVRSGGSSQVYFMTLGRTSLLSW

[3] = molecular target: Casein kinase I isoform gamma-2 (Homo sapiens) (UniProt P78368); assay: Inhibition of human CK1g2 at 1.82 nM by HotSpot assay relative to control
[4] = molecular target: Dual specificity tyrosine-phosphorylation-regulated kinase 1B (Homo sapiens) (UniProt Q9Y463); assay: Inhibition of human DYRK1B at 1.82 nM by HotSpot assay relative to control
Sequence of Dual specificity tyrosine-phosphorylation-regulated kinase 1B (Homo sapiens) (Q9Y463 whole entry, looked up): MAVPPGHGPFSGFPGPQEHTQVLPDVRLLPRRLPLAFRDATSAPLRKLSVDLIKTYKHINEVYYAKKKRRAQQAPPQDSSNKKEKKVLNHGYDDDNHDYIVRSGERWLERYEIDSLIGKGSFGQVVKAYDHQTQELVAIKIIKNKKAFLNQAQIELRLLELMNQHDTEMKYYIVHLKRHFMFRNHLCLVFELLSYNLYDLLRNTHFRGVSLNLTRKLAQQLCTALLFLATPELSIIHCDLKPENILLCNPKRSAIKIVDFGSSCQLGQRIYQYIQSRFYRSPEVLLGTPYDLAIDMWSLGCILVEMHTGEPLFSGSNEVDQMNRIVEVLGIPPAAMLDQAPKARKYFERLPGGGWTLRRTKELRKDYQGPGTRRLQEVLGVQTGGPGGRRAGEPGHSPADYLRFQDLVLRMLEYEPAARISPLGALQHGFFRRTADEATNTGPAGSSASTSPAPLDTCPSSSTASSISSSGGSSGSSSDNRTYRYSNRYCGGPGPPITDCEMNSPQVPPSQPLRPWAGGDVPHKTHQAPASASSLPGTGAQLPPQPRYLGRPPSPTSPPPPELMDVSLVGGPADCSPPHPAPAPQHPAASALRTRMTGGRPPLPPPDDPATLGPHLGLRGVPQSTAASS

[5] = molecular target: Serine/threonine-protein kinase 10 (Homo sapiens) (UniProt O94804); assay: Inhibition of human LOK at 1.82 nM by HotSpot assay relative to control
Sequence of Serine/threonine-protein kinase 10 (Homo sapiens) (O94804 whole entry, looked up): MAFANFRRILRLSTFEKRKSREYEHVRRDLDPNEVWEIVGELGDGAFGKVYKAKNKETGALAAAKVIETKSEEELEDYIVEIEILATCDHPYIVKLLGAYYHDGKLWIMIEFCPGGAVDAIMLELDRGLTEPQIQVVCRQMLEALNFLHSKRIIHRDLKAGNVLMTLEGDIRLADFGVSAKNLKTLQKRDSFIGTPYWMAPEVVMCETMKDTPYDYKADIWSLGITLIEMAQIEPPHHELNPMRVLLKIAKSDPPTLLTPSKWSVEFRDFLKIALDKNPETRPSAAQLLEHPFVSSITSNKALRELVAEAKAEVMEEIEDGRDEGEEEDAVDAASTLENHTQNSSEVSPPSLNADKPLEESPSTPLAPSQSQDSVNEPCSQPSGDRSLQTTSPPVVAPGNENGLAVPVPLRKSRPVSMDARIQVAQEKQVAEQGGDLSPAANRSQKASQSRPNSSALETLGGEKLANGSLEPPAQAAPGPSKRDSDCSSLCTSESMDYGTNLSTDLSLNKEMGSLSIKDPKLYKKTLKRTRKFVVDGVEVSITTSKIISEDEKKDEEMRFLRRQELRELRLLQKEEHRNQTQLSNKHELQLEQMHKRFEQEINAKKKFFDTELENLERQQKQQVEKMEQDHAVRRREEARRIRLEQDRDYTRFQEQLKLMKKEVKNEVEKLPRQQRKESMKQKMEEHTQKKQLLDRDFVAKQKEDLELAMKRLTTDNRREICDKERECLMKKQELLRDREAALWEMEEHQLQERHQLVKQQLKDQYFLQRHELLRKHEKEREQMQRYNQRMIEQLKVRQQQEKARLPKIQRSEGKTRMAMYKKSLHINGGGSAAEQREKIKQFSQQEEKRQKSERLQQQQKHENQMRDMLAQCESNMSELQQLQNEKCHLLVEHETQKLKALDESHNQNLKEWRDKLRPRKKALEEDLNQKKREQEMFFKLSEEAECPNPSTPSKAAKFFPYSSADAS

[6] = molecular target: T2, Serine/threonine-protein kinase haspin (Homo sapiens) (UniProt Q8TF76); assay: Inhibition of human Haspin at 18.6 nM by HotSpot assay relative to control
T2 sequence (whole entry): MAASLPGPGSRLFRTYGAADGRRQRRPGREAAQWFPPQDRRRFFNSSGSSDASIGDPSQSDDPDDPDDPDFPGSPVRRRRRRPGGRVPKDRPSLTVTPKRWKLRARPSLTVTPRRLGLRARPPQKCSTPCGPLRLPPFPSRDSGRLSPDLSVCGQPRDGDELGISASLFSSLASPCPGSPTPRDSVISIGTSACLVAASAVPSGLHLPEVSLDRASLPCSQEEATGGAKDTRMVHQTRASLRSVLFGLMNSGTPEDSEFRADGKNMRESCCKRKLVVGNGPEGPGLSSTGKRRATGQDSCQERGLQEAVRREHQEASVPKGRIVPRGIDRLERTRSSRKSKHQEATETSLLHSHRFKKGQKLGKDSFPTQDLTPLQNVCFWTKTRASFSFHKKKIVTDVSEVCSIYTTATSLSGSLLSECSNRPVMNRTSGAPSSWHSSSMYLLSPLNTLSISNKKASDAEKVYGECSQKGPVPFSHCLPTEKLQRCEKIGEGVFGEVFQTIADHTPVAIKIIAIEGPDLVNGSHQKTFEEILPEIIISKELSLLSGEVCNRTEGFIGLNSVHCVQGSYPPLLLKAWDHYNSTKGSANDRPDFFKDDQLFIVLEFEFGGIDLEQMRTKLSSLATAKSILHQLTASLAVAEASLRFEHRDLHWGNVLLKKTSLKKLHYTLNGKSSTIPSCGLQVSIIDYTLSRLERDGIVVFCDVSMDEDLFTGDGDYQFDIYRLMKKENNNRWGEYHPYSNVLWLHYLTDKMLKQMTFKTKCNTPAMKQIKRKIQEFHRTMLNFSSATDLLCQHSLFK

[7] = molecular target: MAP kinase-interacting serine/threonine-protein kinase 2 (Homo sapiens) (UniProt Q9HBH9); assay: Inhibition of human MNK2 at 18.6 nM by HotSpot assay relative to control
Sequence of MAP kinase-interacting serine/threonine-protein kinase 2 (Homo sapiens) (Q9HBH9 whole entry, looked up): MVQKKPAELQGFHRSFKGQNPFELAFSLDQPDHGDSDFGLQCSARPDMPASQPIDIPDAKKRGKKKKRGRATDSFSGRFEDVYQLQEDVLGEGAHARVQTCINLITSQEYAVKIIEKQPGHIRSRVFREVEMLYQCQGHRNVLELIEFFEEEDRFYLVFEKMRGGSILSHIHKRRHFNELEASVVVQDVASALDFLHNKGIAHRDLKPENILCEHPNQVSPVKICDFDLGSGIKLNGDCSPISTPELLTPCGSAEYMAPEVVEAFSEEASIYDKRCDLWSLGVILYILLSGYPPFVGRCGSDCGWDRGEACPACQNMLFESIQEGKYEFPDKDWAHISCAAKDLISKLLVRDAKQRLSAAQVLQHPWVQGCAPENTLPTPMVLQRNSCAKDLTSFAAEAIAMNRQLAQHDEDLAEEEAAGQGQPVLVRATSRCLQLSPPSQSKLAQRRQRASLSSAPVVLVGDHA

[8] = molecular target: Dual specificity tyrosine-phosphorylation-regulated kinase 1A (Homo sapiens) (UniProt Q13627); assay: Inhibition of human DYRK1 at 18.6 nM by HotSpot assay relative to control
[9] = molecular target: BDNF/NT-3 growth factors receptor (Homo sapiens) (UniProt Q16620); assay: Inhibition of human TRKB at 18.6 nM by HotSpot assay relative to control
Sequence of BDNF/NT-3 growth factors receptor (Homo sapiens) (Q16620 32-822 limits assumed): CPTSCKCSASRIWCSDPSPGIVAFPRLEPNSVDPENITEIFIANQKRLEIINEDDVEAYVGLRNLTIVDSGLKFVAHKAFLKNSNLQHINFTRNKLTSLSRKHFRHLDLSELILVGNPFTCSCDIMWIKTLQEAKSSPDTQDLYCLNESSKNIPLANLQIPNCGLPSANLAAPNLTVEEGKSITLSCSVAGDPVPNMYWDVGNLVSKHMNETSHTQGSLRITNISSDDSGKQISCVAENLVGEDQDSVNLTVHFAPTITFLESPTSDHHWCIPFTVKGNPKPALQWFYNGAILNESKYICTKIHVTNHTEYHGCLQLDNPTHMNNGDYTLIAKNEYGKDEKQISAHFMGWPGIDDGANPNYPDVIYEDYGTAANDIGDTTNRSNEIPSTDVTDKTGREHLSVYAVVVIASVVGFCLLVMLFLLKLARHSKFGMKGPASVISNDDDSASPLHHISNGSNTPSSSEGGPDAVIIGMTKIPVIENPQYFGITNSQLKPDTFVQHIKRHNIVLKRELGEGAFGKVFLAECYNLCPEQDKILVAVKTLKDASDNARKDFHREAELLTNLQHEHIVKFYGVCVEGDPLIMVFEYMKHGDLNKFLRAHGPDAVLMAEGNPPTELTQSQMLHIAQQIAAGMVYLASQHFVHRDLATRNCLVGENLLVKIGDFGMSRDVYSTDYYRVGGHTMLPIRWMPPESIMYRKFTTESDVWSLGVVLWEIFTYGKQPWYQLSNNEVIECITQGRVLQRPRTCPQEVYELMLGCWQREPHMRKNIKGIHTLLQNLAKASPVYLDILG

[10] = molecular target: Tyrosine-protein kinase FRK (Homo sapiens) (UniProt P42685); assay: Inhibition of human FRK at 18.6 nM by HotSpot assay relative to control
[11] = molecular target: Protein kinase C eta type (Homo sapiens) (UniProt P24723); assay: Inhibition of human PKCeta at 18.6 nM by HotSpot assay relative to control
Sequence of Protein kinase C eta type (Homo sapiens) (P24723 whole entry): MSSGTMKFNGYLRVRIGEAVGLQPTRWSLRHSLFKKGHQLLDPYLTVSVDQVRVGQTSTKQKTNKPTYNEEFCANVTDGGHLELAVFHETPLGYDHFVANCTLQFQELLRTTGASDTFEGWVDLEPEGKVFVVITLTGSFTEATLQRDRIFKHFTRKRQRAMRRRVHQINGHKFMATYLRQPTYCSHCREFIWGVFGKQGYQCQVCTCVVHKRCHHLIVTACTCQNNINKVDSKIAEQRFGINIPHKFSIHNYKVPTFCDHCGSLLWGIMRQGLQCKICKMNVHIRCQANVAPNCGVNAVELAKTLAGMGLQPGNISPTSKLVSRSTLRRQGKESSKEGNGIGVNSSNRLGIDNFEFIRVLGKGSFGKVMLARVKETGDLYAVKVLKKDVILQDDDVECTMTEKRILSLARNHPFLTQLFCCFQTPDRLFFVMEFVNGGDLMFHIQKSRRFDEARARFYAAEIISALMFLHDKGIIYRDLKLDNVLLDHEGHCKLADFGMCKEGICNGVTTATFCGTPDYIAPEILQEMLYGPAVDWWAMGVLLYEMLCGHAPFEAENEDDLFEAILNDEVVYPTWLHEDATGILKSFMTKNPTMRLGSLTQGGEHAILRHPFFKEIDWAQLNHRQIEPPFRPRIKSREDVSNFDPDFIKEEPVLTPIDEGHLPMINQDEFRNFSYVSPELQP

Compound: Nc1n[nH]c2nnc(-c3c(-c4ccccc4)nn4ccccc34)cc12
- inhibition [1]: 4.06%

Compound: C[C@@]1(C(=O)Nc2ccc(F)nc2)CCCN1c1nc(Nc2cc(C3CC3)n[nH]2)c2cccn2n1
- inhibition [2]: -4.23%
- inhibition [3]: -3.24%
- inhibition [4]: -1.57%
- inhibition [5]: 12%

Compound: C[C@]1(O)C[C@@H](c2nc(-c3ccc4ccc(-c5ccccc5)nc4c3)c3c(N)nccn32)C1
- inhibition [6]: -1.76%
- inhibition [7]: -3.65%
- inhibition [8]: -1.6%
- inhibition [9]: -7.44%
- inhibition [10]: -0.1%
- inhibition [11]: 1.29%
